Values after ≈ are worked out from the molar mass of the structure shown.
Tests used:
Format in all cases: cell-based
[1] = tested on: Clostridium cylindrosporum A9562; experiment: MIC, serial two-fold dilution method (anaerobic); conditions: Clostridium cylindrosporum A9562; GAM agar medium; inoculum 10^7-10^8; read-out: minimum inhibitory concentration (MIC)
[2] = tested on: Fusobacterium nucleatum A21906; experiment: MIC, serial two-fold dilution method (anaerobic); conditions: Fusobacterium nucleatum A21906; GAM agar medium; inoculum 10^7-10^8; read-out: minimum inhibitory concentration (MIC)
[3] = tested on: Bacillus anthracis IID-115; experiment: microbe, parasite or virus in culture; conditions: Bacillus anthracis, IID115, read-out: minimum inhibitory concentration (MIC)
[4] = tested on: Staphylococcus aureus #193; experiment: MIC, serial two-fold dilution method (aerobic); conditions: Staphylococcus aureus #193; Mueller-Hinton agar; inoculum 10^4; read-out: minimum inhibitory concentration (MIC)
[5] = tested on: Fusobacterium varium ATCC 8501; experiment: MIC, serial two-fold dilution method (anaerobic); conditions: ATCC8501; Fusobacterium varium ATCC 8501; GAM agar medium; inoculum 10^7-10^8; read-out: minimum inhibitory concentration (MIC)
Proteus vulgaris A9436 = experiment: MIC, serial two-fold dilution method (aerobic); conditions: Proteus vulgaris A9436; Mueller-Hinton agar; inoculum 10^4; read-out: minimum inhibitory concentration (MIC)
[6] = tested on: Staphylococcus aureus 209P; experiment: MIC, serial two-fold dilution method (aerobic); conditions: Staphylococcus aureus 209P; Mueller-Hinton agar; inoculum 10^4; read-out: minimum inhibitory concentration (MIC)
[7] = tested on: Clostridium perfringens A22787; experiment: microbe, parasite or virus in culture; conditions: Clostridium perfringens, A22787, read-out: minimum inhibitory concentration (MIC)
[8] = tested on: Staphylococcus aureus A9856; experiment: MIC, serial two-fold dilution method (aerobic); conditions: Staphylococcus aureus A9856; Mueller-Hinton agar; inoculum 10^4; read-out: minimum inhibitory concentration (MIC)
[9] = tested on: Bacteroides fragilis CUH-24; experiment: MIC, serial two-fold dilution method (anaerobic); conditions: CUH24; Bacteroides fragilis CUH-24; GAM agar medium; inoculum 10^7-10^8; read-out: minimum inhibitory concentration (MIC)
[10] = tested on: Peptostreptococcus intermedius A21881; experiment: MIC, serial two-fold dilution method (anaerobic); conditions: Peptostreptococcus intermedius A21881; GAM agar medium; inoculum 10^7-10^8; read-out: minimum inhibitory concentration (MIC)
[11] = tested on: Staphylococcus aureus A20610; experiment: MIC, serial two-fold dilution method (aerobic); conditions: Staphylococcus aureus A20610; Mueller-Hinton agar; inoculum 10^4; read-out: minimum inhibitory concentration (MIC)
[12] = tested on: Bacteroides ovatus A22400; experiment: MIC, serial two-fold dilution method (anaerobic); conditions: Bacteroides ovatus A22400; GAM agar medium; inoculum 10^7-10^8; read-out: minimum inhibitory concentration (MIC)
[13] = tested on: Bacteroides fragilis A22053; experiment: MIC, serial two-fold dilution method (anaerobic); conditions: Bacteroides fragilis A22053; GAM agar medium; inoculum 10^7-10^8; read-out: minimum inhibitory concentration (MIC)
[14] = tested on: Bacillus subtilis ATCC 6633; experiment: MIC, serial two-fold dilution method (aerobic); conditions: ATCC6633; Bacillus subtilis ATCC 6633; Mueller-Hinton agar; inoculum 10^4; read-out: minimum inhibitory concentration (MIC)
[15] = tested on: Staphylococcus aureus BX-1633; experiment: MIC, serial two-fold dilution method (aerobic); conditions: BX1633; Staphylococcus aureus BX-1633; Mueller-Hinton agar; inoculum 10^4; read-out: minimum inhibitory concentration (MIC)
[16] = tested on: Propionibacterium acnes A21933; experiment: MIC, serial two-fold dilution method (anaerobic); conditions: Cutibacterium acnes; Propionibacterium acnes A21933; GAM agar medium; inoculum 10^7-10^8; read-out: minimum inhibitory concentration (MIC)
Micrococcus flavus D-12 = experiment: MIC, serial two-fold dilution method (aerobic); conditions: D12; Micrococcus flavus D-12; Mueller-Hinton agar; inoculum 10^4; read-out: minimum inhibitory concentration (MIC)
[17] = tested on: Pseudomonas aeruginosa D-113; experiment: MIC, serial two-fold dilution method (aerobic); conditions: D113; Pseudomonas aeruginosa D-113; Mueller-Hinton agar; inoculum 10^4; read-out: minimum inhibitory concentration (MIC)
[18] = tested on: Staphylococcus aureus A22421; experiment: MIC, serial two-fold dilution method (aerobic); conditions: Staphylococcus aureus A22421; Mueller-Hinton agar; inoculum 10^4; read-out: minimum inhibitory concentration (MIC)
[19] = tested on: Bacteroides fragilis A21900; experiment: MIC, serial two-fold dilution method (anaerobic); conditions: Bacteroides fragilis A21900; GAM agar medium; inoculum 10^7-10^8; read-out: minimum inhibitory concentration (MIC)
[20] = tested on: Propionibacterium acnes A21953; experiment: MIC, serial two-fold dilution method (anaerobic); conditions: Cutibacterium acnes; Propionibacterium acnes A21953; GAM agar medium; inoculum 10^7-10^8; read-out: minimum inhibitory concentration (MIC)
[21] = tested on: Bacteroides fragilis A20928-1; experiment: MIC, serial two-fold dilution method (anaerobic); conditions: A209281; Bacteroides fragilis A20928-1; GAM agar medium; inoculum 10^7-10^8; read-out: minimum inhibitory concentration (MIC)
[22] = tested on: Staphylococcus aureus A9601; experiment: MIC, serial two-fold dilution method (aerobic); conditions: Staphylococcus aureus A9601; Mueller-Hinton agar; inoculum 10^4; read-out: minimum inhibitory concentration (MIC)
[23] = tested on: Staphylococcus aureus A20394; experiment: MIC, serial two-fold dilution method (aerobic); conditions: Staphylococcus aureus A20394; Mueller-Hinton agar; inoculum 10^4; read-out: minimum inhibitory concentration (MIC)
[24] = tested on: Bacteroides fragilis A20929; experiment: MIC, serial two-fold dilution method (anaerobic); conditions: Bacteroides fragilis A20929; GAM agar medium; inoculum 10^7-10^8; read-out: minimum inhibitory concentration (MIC)
[25] = tested on: Veillonella parvula A20010; experiment: MIC, serial two-fold dilution method (anaerobic); conditions: Veillonella parvula A20010; GAM agar medium; inoculum 10^7-10^8; read-out: minimum inhibitory concentration (MIC)
[26] = tested on: Staphylococcus aureus Smith; experiment: MIC, serial two-fold dilution method (aerobic); conditions: Staphylococcus aureus Smith; Mueller-Hinton agar; inoculum 10^4; read-out: minimum inhibitory concentration (MIC)

CC1(C)S[C@@H]2[C@H](NC(=O)[C@H](N)c3ccccc3)C(=O)N2[C@H]1C(=O)O [Ampicillin]
MIC [1]: 0.8 µg/mL (≈ 2.29 µM)
MIC [2]: 12.5 µg/mL (≈ 35.8 µM)
MIC [3]: 0.013 µg/mL (≈ 0.0372 µM)
MIC [4]: 1.6 µg/mL (≈ 4.58 µM)
MIC [5]: 12.5 µg/mL (≈ 35.8 µM)
MIC (Proteus vulgaris A9436): 0.4 µg/mL (≈ 1.14 µM)
MIC [6]: 0.013 µg/mL (≈ 0.0372 µM)
MIC [7]: 0.1 µg/mL (≈ 0.286 µM)
MIC [8]: 0.05 µg/mL (≈ 0.143 µM)
MIC [9]: 50 µg/mL (≈ 143 µM)
MIC [10]: 0.1 µg/mL (≈ 0.286 µM)
MIC [11]: 12.5 µg/mL (≈ 35.8 µM)
MIC [12]: 25 µg/mL (≈ 71.5 µM)
MIC [13]: 6.3 µg/mL (≈ 18 µM)
MIC [14]: 0.013 µg/mL (≈ 0.0372 µM)
MIC [15]: 3.1 µg/mL (≈ 8.87 µM)
MIC [16]: 0.2 µg/mL (≈ 0.572 µM)
MIC (Micrococcus flavus D-12): 0.1 µg/mL (≈ 0.286 µM)
MIC [17]: > 100 µg/mL
MIC [18]: 12.5 µg/mL (≈ 35.8 µM)
MIC [19]: 0.2 µg/mL (≈ 0.572 µM)
MIC [20]: < 0.0063 µg/mL
MIC [21]: 0.2 µg/mL (≈ 0.572 µM)
MIC [22]: 0.4 µg/mL (≈ 1.14 µM)
MIC [23]: 3.1 µg/mL (≈ 8.87 µM)
MIC [24]: 0.8 µg/mL (≈ 2.29 µM)
MIC [25]: 0.4 µg/mL (≈ 1.14 µM)
MIC [26]: 0.05 µg/mL (≈ 0.143 µM)

Reference: patent publication US4409210A, “Antibiotic compound” (priority 1982, dated 1983)
